Reference: patent publication US8952024B2, “Herbicidal pyrimidone derivatives” (E I du Pont de Nemours and Company, priority 2009, dated 2015)

Key:
Test in all cases: Test B pre-/postemergence plant response
Format in all cases: in vivo
[1] = test system: bermudagrass (Cynodon dactylon); conditions: for Plant response rating, Bermudagrass: Postemergence
How it was run: (§1)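 Each species received compound formulated in non-phytotoxic solvent with surfactant, either at planting into a loam and sand blend or as a foliar spray once plants reached 2 to 18 cm in peat-based medium. Plants stayed in the greenhouse 13 to 15 days before visual evaluation against controls, scored 0 (no effect) to 100 (complete control).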

[2] = test system: goosegrass (Eleusine indica); conditions: for Plant response rating, Goosegrass: Postemergence
How it was run: as §1

[3] = test system: morningglory (Ipomoea coccinea); conditions: for Plant response rating, Morningglory: Postemergence
How it was run: as §1

[4] = test system: woolly cupgrass (Eriochloa villosa); conditions: for Plant response rating, Cupgrass, Woolly: Postemergence
How it was run: as §1

[5] = test system: green foxtail (Setaria viridis); conditions: for Plant response rating, Foxtail, Green: Postemergence
How it was run: as §1

corn (Zea mays) = conditions: for Plant response rating, Corn: Postemergence
How it was run: as §1

[6] = test system: downy bromegrass (Bromus tectorum); conditions: for Plant response rating, Bromegrass, Downy: Postemergence
How it was run: as §1

[7] = test system: giant foxtail (Setaria faberii); conditions: for Plant response rating, Foxtail, Giant: Postemergence
How it was run: as §1

[8] = test system: johnsongrass (Sorghum halepense); conditions: for Plant response rating, Johnsongrass: Postemergence
How it was run: as §1

[9] = test system: large crabgrass (Digitaria sanguinalis); conditions: for Plant response rating, Crabgrass, Large: Postemergence
How it was run: as §1

[10] = test system: Italian ryegrass (Lolium multiflorum); conditions: for Plant response rating, Ryegrass, Italian: Postemergence
How it was run: as §1

[11] = test system: yellow nutsedge (Cyperus esculentus); conditions: for Plant response rating, Nutsedge, Yellow: Postemergence
How it was run: as §1

[12] = test system: ragweed (common ragweed, Ambrosia elatior); conditions: for Plant response rating, Ragweed: Postemergence
How it was run: as §1

[13] = 62 g ai/ha, postemergence, 0 is no effect, 100 is complete control, 13 to 15 days
[14] = 31 g ai/ha, 0 to 100 scale (0 no effect, 100 complete control)
[15] = 125 g ai/ha, scale 0 to 100 (0 no effect, 100 complete control)
[16] = 250 g ai/ha, scale 0 to 100 (0 no effect, 100 complete control)

COCCn1c(-c2cccc(F)c2)ncc(C(=O)C2=C(O)CCCC2=O)c1=O [Compound 123]
Bermudagrass plant response rating (0 to 100 scale) [1, 13]: 85
Plant response rating, Bermudagrass [1, 14]: 80
Plant response rating, Bermudagrass [1, 15]: 90
Plant response rating, Bermudagrass [1, 16]: 98
Goosegrass plant response rating (0 to 100 scale) [2, 13]: 65
Plant response rating, Goosegrass [2, 14]: 65
Plant response rating, Goosegrass [2, 15]: 80
Plant response rating, Goosegrass [2, 16]: 85
Morningglory plant response rating (0 to 100 scale) [3, 13]: 98
Plant response rating, Morningglory [3, 14]: 70
Plant response rating, Morningglory [3, 15]: 100
Plant response rating, Morningglory [3, 16]: 100
Cupgrass, Woolly plant response rating (0 to 100 scale) [4, 13]: 45
Plant response rating, Cupgrass, Woolly [4, 14]: 25
Plant response rating, Cupgrass, Woolly [4, 15]: 75
Plant response rating, Cupgrass, Woolly [4, 16]: 90
Foxtail, Green plant response rating (0 to 100 scale) [5, 13]: 60
Plant response rating, Foxtail, Green [5, 14]: 50
Plant response rating, Foxtail, Green [5, 15]: 85
Plant response rating, Foxtail, Green [5, 16]: 90
Corn plant response rating (0 to 100 scale) (corn (Zea mays); [13]): 70
Plant response rating, Corn (corn (Zea mays); [14]): 35
Plant response rating, Corn (corn (Zea mays); [15]): 75
Plant response rating, Corn (corn (Zea mays); [16]): 80
Bromegrass, Downy plant response rating (0 to 100 scale) [6, 13]: 5
Plant response rating, Bromegrass, Downy [6, 14]: 0
Plant response rating, Bromegrass, Downy [6, 15]: 10
Plant response rating, Bromegrass, Downy [6, 16]: 45
Foxtail, Giant plant response rating (0 to 100 scale) [7, 13]: 75
Plant response rating, Foxtail, Giant [7, 14]: 65
Plant response rating, Foxtail, Giant [7, 15]: 80
Plant response rating, Foxtail, Giant [7, 16]: 85
Johnsongrass plant response rating (0 to 100 scale) [8, 13]: 65
Plant response rating, Johnsongrass [8, 14]: 35
Plant response rating, Johnsongrass [8, 15]: 75
Plant response rating, Johnsongrass [8, 16]: 90
Crabgrass, Large plant response rating (0 to 100 scale) [9, 13]: 80
Plant response rating, Crabgrass, Large [9, 14]: 70
Plant response rating, Crabgrass, Large [9, 15]: 85
Plant response rating, Crabgrass, Large [9, 16]: 90
Ryegrass, Italian plant response rating (0 to 100 scale) [10, 13]: 5
Plant response rating, Ryegrass, Italian [10, 14]: 0
Plant response rating, Ryegrass, Italian [10, 15]: 5
Plant response rating, Ryegrass, Italian [10, 16]: 50
Nutsedge, Yellow plant response rating (0 to 100 scale) [11, 13]: 75
Plant response rating, Nutsedge, Yellow [11, 14]: 65
Plant response rating, Nutsedge, Yellow [11, 15]: 75
Plant response rating, Nutsedge, Yellow [11, 16]: 80
Ragweed plant response rating (0 to 100 scale) [12, 13]: 85
Plant response rating, Ragweed [12, 14]: 70
Plant response rating, Ragweed [12, 15]: 95
Plant response rating, Ragweed [12, 16]: 98
